From patent US20230321126A1 (priority 2020, published 2023)

How the values were obtained:
[1] = molecular target: RBD of SARS-CoV-2 spike protein (Severe acute respiratory syndrome coronavirus 2, UniProt P0DTC2); conditions: Jena et al.; cited from earlier work
[2] = test system: cathepsin L; assay: Cathepsin L expression in A549 cells (Western blot); format: cell-based, human; conditions: 24 h
Experimental: Western blot analysis: A549 cells were treated with indicated concentrations of selected polyphenols and lysed using RIPA lysis buffer (Sigma, St. Louis, MO) supplemented with 1× Complete protease inhibitors (Roche Applied Science, Indianapolis, IN). The protein concentration was measured by the Dc protein assay (Bio-Rad, Hercules, CA). Proteins (50 μg/well) were separated on 8-16% gradient SDS-PAGE gels and transferred to a PVDF membrane. Specific proteins were detected with commercially available human anti-cathepsin L, anti-TMPRSS2, and anti-ACE2 monoclonal antibodies, all at 1:200 dilution, and anti-β-actin antibody as a loading control at 1:1000 dilution. Images were captured with Azure™ cSeries digital imaging system (Azure Biosystems, Dublin, CA) with auto-exposure settings. Densitometry was performed with NIH ImageJ software.
Cathepsin L expression: Expression of cathepsin L in cells was performed using Western blot. […] Next, cells were washed with 1×PBS, lysed, and processed according to procedure described below.
Western blot: A495 cells were lysed with lysis buffer [R IPA buffer plus 1× Protease Inhibitor (ThermoFisher Scientific, Waltham, MA)]. The protein estimation was performed with Dc Protein Assay (Bio-Rad, Hercules, CA). A 45 μg/well of protein was separated on 8-16% gradient SDS-PAGE gels and transferred to a PVDF membrane. […]

[3] = test system: SARS-CoV-2 spike protein pseudo-typed virions; format: cell-based
[4] = molecular target: T1, hACE2 (Homo sapiens, UniProt Q9BYF1); assay: ACE2 binding assay (ACE2 Inhibitor Screening Assay Kit); set-up: purchased BPS Bioscience
T1 sequence (Q9BYF1 18-805): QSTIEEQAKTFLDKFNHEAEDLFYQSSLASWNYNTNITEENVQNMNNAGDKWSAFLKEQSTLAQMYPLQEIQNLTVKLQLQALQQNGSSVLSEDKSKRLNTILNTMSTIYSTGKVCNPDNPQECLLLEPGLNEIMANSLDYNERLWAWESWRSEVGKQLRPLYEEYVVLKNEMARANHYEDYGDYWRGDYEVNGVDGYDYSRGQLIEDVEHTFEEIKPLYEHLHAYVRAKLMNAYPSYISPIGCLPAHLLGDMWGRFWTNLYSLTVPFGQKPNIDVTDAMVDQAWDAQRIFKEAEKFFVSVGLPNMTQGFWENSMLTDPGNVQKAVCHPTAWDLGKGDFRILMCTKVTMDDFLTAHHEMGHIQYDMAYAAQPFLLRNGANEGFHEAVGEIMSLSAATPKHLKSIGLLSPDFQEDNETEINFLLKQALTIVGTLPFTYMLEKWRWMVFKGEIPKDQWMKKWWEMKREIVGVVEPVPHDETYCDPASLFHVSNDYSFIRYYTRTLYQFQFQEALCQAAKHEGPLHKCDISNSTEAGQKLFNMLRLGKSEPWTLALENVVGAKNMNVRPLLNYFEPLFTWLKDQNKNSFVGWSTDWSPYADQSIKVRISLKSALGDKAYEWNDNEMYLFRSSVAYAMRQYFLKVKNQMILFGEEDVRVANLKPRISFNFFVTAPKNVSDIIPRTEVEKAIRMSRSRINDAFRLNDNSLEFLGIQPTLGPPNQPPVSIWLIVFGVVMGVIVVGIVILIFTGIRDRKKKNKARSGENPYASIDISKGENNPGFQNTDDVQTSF

[5] = molecular target: RBD of SARS-CoV-2 spike protein / hACE2 receptor (Severe acute respiratory syndrome coronavirus 2, UniProt P0DTC2); format: binding; conditions: 100 μg/ml
[6] = molecular target: T1, hACE2; conditions: Jena et al.; cited from earlier work
[7] = test system: SARS-CoV-2 spike protein pseudo-typed virions; format: cell-based; remark: listed apart in the source
[8] = test system: lysosomal/endosomal pH of A549 cells; assay: Endosomal/lysosomal pH assay in A549 cells; format: cell-based, human; conditions: 5.0-25 μg/ml; control approximately pH=5.0
Experimental: Acridine orange (Thermo Fisher Scientific, Waltham, MA) was added directly to each dish to reach a final concentration of 6.6 μg/ml. The cells were additionally incubated at 37° C. with 5% CO2 for 20 min. and washed three times with 1×PBS. Live Cell Imaging Solution (LCIS) (Thermo Fisher Scientific, Waltham, MA) was added to the wells, and images were taken using a Zeiss Axio Observer A1 fluorescence microscope with a 40× magnification. […] Results are expressed as a percentage of polyphenol-free control (mean+/−SD, n=3).
A concurrent experiment was performed using pHrodo™ Green AM Intracellular pH Indicator (Thermo Fisher Scientific, Waltham, MA) according to the manufacturer's protocol. […] Next, 10 μl of the pHrodo™ Green AM dye was added to 100 μl of PowerLoad™ to facilitates uniform cellular loading of AM esters, and the whole dye solution was transferred into 10 ml of LCIS. […] The plate was incubated for 30 min. at 37° C., washed again with LCIS, and fluorescence was measured at Ex/Em=509/533 nm wavelength using a spectrofluorometer (Tecan Group Ltd, Switzerland). pH identification was performed based on standard curve, using an Intracellular pH Calibration Buffer Kit according to the manufacturer's protocol (Thermo Fisher Scientific, Waltham, MA). […] Next, the fluorescence was measured Ex/Em=509/533 nm wavelength. […]

[9] = test system: A549 cells expressing SARS-CoV-2 spike protein / hACE2/A549 cells; format: cell-based, human; conditions: 25 μg/ml, 4 h

Compound | binding affinity to viral spike protein [1] [kcal/mol] | cathepsin L expression at protein level [2] | binding of pseudo-typed virions to hACE2/A549 [3] | concentration showing binding efficacy to ACE2 [4] [µg/mL] | rank of inhibitory effect among 56 polyphenols and plant extracts [5] | binding affinity to hACE2 [6] [kcal/mol] | concentration from which significant inhibition was seen [7] [µg/mL] | lysosomal/endosomal pH [8] | direct binding to ACE2 [4] | decrease of fusion [9] [%]
COc1cc(/C=C/C(=O)CC(=O)/C=C/c2ccc(O)c(OC)c2)ccc1O [Curcumin] | -10.5 | neither brazilin nor curcumin downregulated cathepsin L expression | inhibit, in dose-dependent fashion | 10 to 25 | highest inhibitory effect | -8.9 | ≥ 5.0 | – | – | –
catechin | -7.9 | – | – | – | – | -7.8 | – | – | – | –
theaflavin-3,3′-digallate [TF-3] | – | – | inhibit, in dose-dependent fashion | – | – | – | – | 5.5-6.0 pH | – | –
Oc1ccc2c(c1)OC[C@]1(O)Cc3cc(O)c(O)cc3[C@H]21 [Brazilin] | – | neither brazilin nor curcumin downregulated cathepsin L expression | inhibit, in dose-dependent fashion | – | highest inhibitory effect | – | – | – | does not bind to ACE2 directly | 40
